The source of these data is US20240423208A1, “AGRICULTURAL COMPOSITION AND METHOD FOR CULTIVATING PLANTS USING SAME” (KANEKA CORPORATION, priority 2022, published 2024).

The test system of assay [1] is lettuce (the cultivar: Lollo Rosso or Red Oak). Description: Experiment 10: visual evaluation of lettuce coloration after leaf spraying. The format is in vivo. The following applies: GSSG 0.125%, ALN 0.5%; sprayed on leaves approximately 1 g/head; one week after spraying; compared with T1. Details: key: The same degree of coloration as T1 was rated CC; slightly more coloration than T1 was rated BB; much more coloration than T1 was rated AA. The method, then:
Culture soil was put in a 9 cm plastic pot, and seeded with lettuce (the cultivar: Lollo Rosso or Red Oak). After the seeding, the lettuce was grown in an environmentally controlled greenhouse set at 28° C. during the daytime and at 18° C. during the nighttime. Three weeks after the seeding, each test solution shown in Table 5 was sprayed on the leaves at approximately 1 g/head. One week after the spraying, the appearance of the lettuce was visually observed, and the degree of coloration was evaluated. The evaluation was based on a comparison with T1 (the control). The same degree of coloration as T1 was rated CC, slightly more coloration than T1 was rated BB, and much more coloration than T1 was rated AA.

The subject of assay [2] is Lettuce (the cultivar: Souther). Description: Experiment 2: lettuce growth under high-temperature stress, total dry weight. The format is in vivo. The following applies: diluted 1000-fold, bottom watering, 40° C. for two hours. As to the method: Lettuce (the cultivar: Souther) was raised in a plant incubator. Three weeks after the seeding and four weeks after the seeding, a fertilizer composition comprising 5 mass % GSSG, 10 mass % ALN, or 20 mass % ALN, a fertilizer composition comprising neither GSSG nor ALN, or a fertilizer composition comprising a combination of 5 mass % GSSG and each concentration of ALN was applied. Each fertilizer composition was diluted 1000-fold, and the resulting solution was applied by bottom watering.
Four weeks after the seeding, the seedling was transplanted into a pot, subjected to high-temperature stress at 40° C. for two hours in a plant incubator, and grown for one week. Then, the seedling was transferred into a glass greenhouse, grown for one week, and then, evaluated (repeated 9 times).
Assuming that the value of the total dry weight of the lettuce to which the fertilizer composition comprising neither GSSG nor ALN was applied alone was 100, the total dry weight of the lettuce to which each composition was applied was expressed.

Another assay relates to grape VR cell. Description: Experiment 9: cumulative amount of anthocyanin in cultured grape VR cell. The format is cell-based. The following applies: GSSG 0.1%, ALN 0.4%; 10 μL at start and 100 μL on 3rd day; measured on 11th day of culture. As to the method:
A grape VR cell was cultured in an LS agar culture medium, and the cumulative amount of anthocyanin was measured. The solution for each treatment section as shown in Table 4 was delivered into the cell cluster by drops in an amount of 10 μL at the beginning of the culture, and in an amount of 100 μL on the 3rd day of culture. The amount of anthocyanin was measured on the 11th day of culture. The culture was performed at 27° C. under light irradiation.

The subject of assay [3] is Lettuce (the cultivar: Souther). Description: Experiment 1: lettuce growth, total dry weight after bottom watering. In kind it is in vivo. The following applies: compositions with 15 mass % GSSG, 10 mass % ALN, 5 mass % ferrous material, 15 mass % seaweed extract; diluted 1000-fold, bottom watering 3 and 4 weeks after seeding. The method, then:
Lettuce (the cultivar: Souther) was raised in a plant incubator. Three weeks after the seeding and four weeks after the seeding, a composition comprising 15 mass % oxidized glutathione (GSSG), 10 mass % allantoin (ALN), 5 mass % ferrous material, or 15 mass % seaweed extract, or a composition comprising a combination of 15 mass % GSSG and any of 10 mass % ALN, 5 mass % ferrous material, or 15 mass % seaweed extract was applied to the lettuce. Each composition was diluted 1000-fold, and each resulting solution was applied by bottom watering.
Four weeks after the seeding, the seedling was transplanted into a pot, grown in a glass greenhouse for two weeks, and then, evaluated (repeated 9 times).
Assuming that the value of the total dry weight of the lettuce to which water alone was applied was 100, the total dry weight of the lettuce to which each composition was applied was expressed.

On to `NC(=O)NC1NC(=O)NC1=O` (stereo not drawn) [ALN, 5-ureidohydantoin], for which, in assay [1], the “degree of coloration, Lollo Rosso” value is “BB”. In addition, the “degree of coloration, Red Oak” value in assay [1] was “BB”. For the same molecule, the “total dry weight of the lettuce (fertilizer composition with neither GSSG nor ALN = 100)” value in assay [2] (ALN 10%, GSSG 0% or 5%) is listed as 104; in assay [2] (ALN 20%, GSSG 0% or 5%), 115. For the same molecule, in the assay with grape VR cell, the “cumulative amount of anthocyanin” value is “neither GSSG alone nor ALN alone affected”. In assay [3], the “total dry weight of the lettuce (water alone = 100)” value is reported as 123.

For the molecule `[Fe+2]` [Ferrous iron], in assay [3], the “total dry weight of the lettuce (water alone = 100)” value amounted to 98.

Regarding oxidized glutathione [GSSG], in assay [1], the “degree of coloration, Lollo Rosso” value was “CC” and the “degree of coloration, Red Oak” value is on record as “BB”. In addition, the “total dry weight of the lettuce (fertilizer composition with neither GSSG nor ALN = 100)” value in assay [2] (ALN 0%, GSSG 5 mass %) amounted to 108. Also, the “cumulative amount of anthocyanin” value with grape VR cell is given as “neither GSSG alone nor ALN alone affected”. In addition, the “total dry weight of the lettuce (water alone = 100)” value in assay [3] is 113.
